According to ChEMBL document CHEMBL1132079, “Combined NK1 and NK2 tachykinin receptor antagonists: synthesis and structure-activity relationships of novel oxazolidine analogues” (Bioorg Med Chem Lett, 1999):

What was measured:
Substance-P receptor = Substance-P receptor (Cavia porcellus, UniProt P30547); test: Inhibitory activity against Neurokinin 1 (NK1) receptor from guinea pig lung
Substance-K receptor = target: T1, Substance-K receptor (Cavia porcellus, UniProt Q64077); test: Inhibitory activity against Neurokinin 2 (NK2) receptor from guinea pig ileum; type: tissue-based
T1 sequence (Q64077 whole entry): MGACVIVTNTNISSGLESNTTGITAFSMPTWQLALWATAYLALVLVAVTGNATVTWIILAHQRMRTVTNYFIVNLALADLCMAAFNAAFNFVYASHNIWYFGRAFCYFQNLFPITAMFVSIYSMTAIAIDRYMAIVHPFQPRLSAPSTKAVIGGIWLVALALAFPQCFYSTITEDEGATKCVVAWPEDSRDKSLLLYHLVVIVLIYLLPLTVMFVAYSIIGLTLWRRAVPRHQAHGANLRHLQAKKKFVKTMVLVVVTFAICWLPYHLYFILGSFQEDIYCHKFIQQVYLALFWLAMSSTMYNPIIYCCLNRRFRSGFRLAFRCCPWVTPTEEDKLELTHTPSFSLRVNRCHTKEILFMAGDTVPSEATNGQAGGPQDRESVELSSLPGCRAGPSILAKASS

Cavia porcellus [1] = test: In vivo inhibitory activity against [Nle10] ]-NKA[4-10]-induced bronchoconstriction in guinea pig after iv administration; type: functional; conditions: read-out: ID50 (the source's name)
Cavia porcellus [2] = test: In vivo inhibitory activity against SP-induced vascular hyperpermeability in guinea pig after iv administration; type: functional; conditions: read-out: ID50 (the source's name)

Chain of Substance-P receptor (P30547 whole entry): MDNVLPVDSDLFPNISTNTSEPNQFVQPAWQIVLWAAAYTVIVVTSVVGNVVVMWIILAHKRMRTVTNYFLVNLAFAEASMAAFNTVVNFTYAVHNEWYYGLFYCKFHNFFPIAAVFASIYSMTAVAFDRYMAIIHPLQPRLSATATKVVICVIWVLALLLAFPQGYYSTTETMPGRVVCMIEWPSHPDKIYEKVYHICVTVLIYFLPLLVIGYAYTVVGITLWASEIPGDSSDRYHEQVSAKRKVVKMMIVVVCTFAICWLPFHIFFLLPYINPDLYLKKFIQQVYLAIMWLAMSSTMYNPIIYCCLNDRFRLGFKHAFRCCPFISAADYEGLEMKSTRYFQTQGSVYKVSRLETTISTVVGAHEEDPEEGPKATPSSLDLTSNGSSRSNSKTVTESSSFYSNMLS

Row | IC50 (Substance-P receptor) [nM] | IC50 (Substance-K receptor) [nM] | Structure (SMILES) | ED50 (Cavia porcellus [1]) [mg/kg] | ED50 (Cavia porcellus [2]) [mg/kg]
1 | 10.2 | 11.4 | COc1cc(C(=O)N2CO[C@](CCN3CCC4(CC3)c3ccccc3C[S+]4[O-])(c3ccc(Cl)c(Cl)c3)C2)cc(OC)c1OC (some centres undefined) | 0.074 | 0.025
2 | 48 | 10.3 | COc1cc(C(=O)N2CO[C@](CCN3CCC4(CC3)NC(=O)Cc3ccccc34)(c3ccc(F)cc3)C2)cc(OC)c1OC |  | 
3 | 18.3 | 4.58 | COc1cc(C(=O)N2CO[C@](CCN3CCC4(CC3)NC(=O)Cc3ccccc34)(c3ccc(Cl)c(Cl)c3)C2)cc(OC)c1OC |  | 
4 | 25.3 | 8.2 | COc1cc(C(=O)N2CO[C@](CCN3CCC(C(=O)N(C)C)(c4ccccc4)CC3)(c3ccc(Cl)c(Cl)c3)C2)cc(OC)c1OC |  | 
5 | 28 | 115 | COc1cc(C(=O)N2CO[C@](CCN3CCN(c4ccc(C(C)=O)cc4)CC3)(c3ccc(Cl)c(Cl)c3)C2)cc(OC)c1OC |  | 
6 | 34 | 28.1 | COc1cc(C(=O)N2CO[C@](CCN3CCC4(CC3)c3ccccc3CS4(=O)=O)(c3ccc(Cl)c(Cl)c3)C2)cc(OC)c1OC |  | 
7 | 42.3 | 20.4 | COc1cc(C(=O)N2CO[C@](CCN3CCC(C(=O)N(C)C)(c4ccccc4)CC3)(c3ccc(F)c(F)c3)C2)cc(OC)c1OC |  | 
8 | 82.2 | 5.16 | COc1cc(C(=O)N2CO[C@](CCN3CCC4(CC3)NC(=O)Cc3ccccc34)(c3ccc(Cl)cc3)C2)cc(OC)c1OC |  | 
9 | 24.6 | 34.5 | COc1cc(C(=O)N2CO[C@](CCN3CCC4(CC3)c3ccccc3C[S+]4[O-])(c3ccc(F)cc3)C2)cc(OC)c1OC (some centres undefined) |  | 
10 | 25.5 | 30.3 | COc1cc(C(=O)N2CO[C@](CCN3CCC4(CC3)c3ccccc3C[S+]4[O-])(c3ccc(F)c(F)c3)C2)cc(OC)c1OC (some centres undefined) |  | 
11 | 19.2 | 11 | COc1cc(C(=O)N2CO[C@](CCN3CCC4(CC3)c3ccccc3C[S+]4[O-])(c3ccc(Cl)cc3)C2)cc(OC)c1OC (some centres undefined) |  | 
12 | 45 | 10.9 | COc1cc(C(=O)N2CO[C@](CCN3CCC4(CC3)NC(=O)Cc3ccccc34)(c3ccc(F)c(F)c3)C2)cc(OC)c1OC |  | 

Row | Structure (SMILES) | IC50 (Substance-P receptor) [nM] | IC50 (Substance-K receptor) [nM] | ED50 (Cavia porcellus [1]) [mg/kg] | ED50 (Cavia porcellus [2]) [mg/kg]
13 | COc1cc(C(=O)N2CO[C@](CCN3CCC4(CC3)C(=O)N(C)c3ccccc34)(c3ccc(Cl)c(Cl)c3)C2)cc(OC)c1OC | 14.1 | 51.9 |  | 
14 | COc1cc(C(=O)N2CO[C@](CCN3CCC(C(N)=O)(c4ccccc4)CC3)(c3ccc(F)cc3)C2)cc(OC)c1OC | 45.6 | 744 |  | 
15 | COc1cc(C(=O)N2CO[C@](CCN3CCC(C(=O)N(C)C)(c4ccccc4)CC3)(c3ccc(F)cc3)C2)cc(OC)c1OC | 27.4 | 15 |  | 
16 | COc1cc(C(=O)N2CO[C@](CCN3CCC(C(=O)N(C)C)(c4ccccc4)CC3)(c3ccc(Cl)cc3)C2)cc(OC)c1OC | 78.6 | 7.39 |  | 
